Experimental data reported in patent EP0345356A1, “PLATINUM COMPLEX AND THERAPEUTIC AGENT FOR MALIGNANT TUMOR” (TORAY INDUSTRIES, INC., priority 1987, dated 1989).

Experiments:
[1] = tested on: L1210 murine leukemia cells; experiment: Antitumor activity against L1210 leukemia in mice; format: in vivo, CDF1 mice; conditions: for Survival days (mean ± SD) / T/C (%): given on 1st, 5th and 9th days after tumor inoculation; for Survival rate: number of 30 days survival mice / group
Procedure: L1210 murine leukemia cells which were subcultured in DBA/2 mouse were inoculated intraperitoneally into CDF1 mice at 10^5 cells/mouse. Each experimental group was composed of 6-10 mice (male, 6-weeks old). Each test compound was administered three times, i.e., on the 1st, 5th and 9th days after tumor inoculation. […] Each compound was dissolved or suspended in 0.05% "Tween 80" solution and administered in mice.

Slc:ICR mice = experiment: Acute toxicity test in mice (LD50, Miller-Tainter method); format: in vivo; conditions: intraperitoneal, Slc:ICR mice (male), death rate on the 14th day
Procedure: Platinum complexes to be tested was administered intraperitoneally to Slc:ICR mice (male, 5 weeks old, 6 mice/group). Each complex was used in the form of a solution or suspension in a 0.05% "Tween 80" in saline. The LD50 value was calculated by the Miller-Tainter method from the death rate on the 14th day from the date of the administration.

Row | SMILES | Survival days (mean ± SD) ([1]; Dose 1 mg/kg) | T/C (%) ([1]; Dose 1 mg/kg) | Survival rate ([1]; Dose 1 mg/kg) | Survival days (mean ± SD) ([1]; Dose 10 mg/kg) | T/C (%) ([1]; Dose 10 mg/kg) | Survival rate ([1]; Dose 10 mg/kg) | Survival days (mean ± SD) ([1]; Dose 25 mg/kg) | T/C (%) ([1]; Dose 25 mg/kg) | Survival rate ([1]; Dose 25 mg/kg) | Survival days (mean ± SD) ([1]; Dose 50 mg/kg) | T/C (%) ([1]; Dose 50 mg/kg) | Survival rate ([1]; Dose 50 mg/kg) | Survival days (mean ± SD) ([1]; Dose 100 mg/kg) | T/C (%) ([1]; Dose 100 mg/kg) | Survival rate ([1]; Dose 100 mg/kg) | Survival days (mean ± SD) ([1]; Dose 200 mg/kg) | T/C (%) ([1]; Dose 200 mg/kg) | Survival rate ([1]; Dose 200 mg/kg) | LD50 values (Slc:ICR mice)
1 | NC1CCCCC1N.O=C([O-])c1cc2ccccc2[nH]1.O=C([O-])c1cc2ccccc2[nH]1.[Pt+2] [XXIII-1, Bis(indole-2-carboxylato)(trans-ℓ-dach)platinum(II)] | 8.5 ± 0.8 days | 102% | 0/6 | 10.5 ± 1.0 days | 127% | 0/6 | 15.0 ± 5.4 days | 181% | 0/6 | 18.7 ± 9.2 days | 225% | 1/6 | 21.2 ± 7.9 days | 255% | 2/6 | 8.2 ± 1.9 days | 99% | 0/6 | 180 mg/kg
2 | NC1CCCCC1N.O=C([O-])c1ccco1.O=C([O-])c1ccco1.[Pt+2] (stereo not drawn) [XXIV-1, Bis(2-furancarboxylato)(trans-ℓ-dach)platinum(II)] | 9.5 ± 0.8 days | 117% | 0/6 | 14.2 ± 2.9 days | 175% | 0/6 | 20.2 ± 4.9 days | 249% | 1/6 | 17.3 ± 6.3 days | 214% | 1/6 | 9.0 ± 1.5 days | 111% | 0/6 | 6.0 days | 74% | 0/6 | 87 mg/kg
